Consider 14 compounds from patent publication US5646155A, “Drugs to prevent recurrent herpes virus infections” (priority 1994, dated 1997).

Molecules are shown by their SMILES. Converted amounts (≈) assume the structure as drawn. Like-named read-outs stand apart in the source and are kept apart here.

Series [1] addresses Varicella Zoster Virus (VZV) Thymidine Kinase (TK) (Varicella-zoster virus, UniProt P09250). Description: VZV thymidine kinase inhibition (Table 7). The format is biochemical.
A short description of series [2]: Solubility in water (Table 1). Format: physicochemical. The following applies: read-out: Sol. in H2O.
Series [3] is described as follows: physchem. The following applies: octanol/water.
For series [4], the target named is HSV2 TK (Human herpesvirus 2, UniProt P04407). Description: HSV2 thymidine kinase inhibition (Table 1). The format is biochemical. The source says:
kinases (TK) from Herpes simplex virus types 1 and 2 (HSV1, HSV2).

Series [5] addresses HSV1 TK (Human herpesvirus 1, UniProt P0DTH5). Description: biochemical.
The test system of series [6] is HSV1, strain McKrae. Put plainly: Reactivation in vitro of latent HSV1 strain McKrae from explanted mouse ganglia (Table 6). Format: cell-based, mice. The conditions noted are these: 15 μM drugs, 7 days, supernatant added to Vero cells. How it is done: Screening of compounds is carried out using an in vitro explant cocultivation model in mice. Ocular HSV1 infections are initiated and, after subsidence of the infectious phase (several days), latent HSV1 infection becomes established in the trigeminal ganglia of the mice. The ganglia are then surgically removed and minced or homogenized, and this explanted tissue is cocultivated on mammalian cells, typically Vero cells. The frequency of reactivation is determined as the percentage of ganglia that produce HSV1 virus (as measured by viral cytopathic effect (CPE)) in the cultures. Effective drugs present during the cocultivation period will decrease the frequency of reactivation relative to untreated cocultures. See Leib et al. (J. Virol. 63:759-768 (1989)), incorporated herein by reference, and statements herein for further experimental details.
Latent ocular HSV1 infections were established in mice. Trigeminal gangli
were removed and treated as follows.
^2 Ganglia were minced and incubated for 7 days in the presence of 15
μM drugs; after homogenization, supernatant was added to Vero cells in
culture (courtesy of Dr. Y. J. Gordon, Eye and Ear Institute, Pittsburgh)

The nature of series [7]: Pharmacokinetics in mice following intraperitoneal administration (Table 3). Format: in vivo. The following applies: mouse, ip. How it is done:
Pharmacokinetic parameters of inhibitors in mice
following intraperitoneal (100 mg/Kg) administration (i.p.)
^1 Plasma concentrations were measured by analytical HPLC on a C8
reverse phase column as described in the experimental Section.

In series [8] the test system is HSV1. Put plainly: Hyperthermia-induced viral DNA synthesis in HSV1 latent mice, QCPCR (Table 5). Format: in vivo. The conditions noted are these: 200 mg/kg, stressed (43° C. water 10 min), ganglionic DNA. How it is done: (§1) Table 5 provides quantitation of viral DNA using quantitative, competitive polymerase chain reaction methods.
(§2) .dagger-dbl.HSV1 latent mice were treated with HBPG (200 mg/kg), stressed
(§3) by immersion in 43° C. water for 10 min, and sacrificed 24 hours
ΔGanglionic DNA was amplified in quantitative, competitive
polymerase chain reaction (QCPCR) and the copy number of the viral gene
present determined at the equivalence point.

Series [9] can be described thus: Absorption and distribution in mice (Table 2). The conditions noted are these: for Vd/F: i.p.; for half-life: plasma. The format is in vivo. The source says: Absorption and distribution of 9-substituted-N^2 -phenylquanines in mice.
*i.v., intravenous; i.p., intraperitoneal.

The test system of series [10] is HSV1. Put plainly: Hyperthermia-induced HSV1 reactivation in mice, infectious virus (Table 4). The conditions noted are these: for Infectious Virus, Ganglion / Infectious Virus, Ocular Surface: 200 mg/kg. Format: in vivo. Here is the method:
as §1, §2, §3
ΔGanglion homogenates and ocular surface swabs were cocultured on
indicator cells and the appearance of cytopathic effect recorded.

Series [11] deals with HSV1, strain KOS. The conditions noted are these: 150 μM drugs, cocultivated on Vero cells (from Leib et al.); cited from earlier work.
Setting [12] is: mouse, in vivo, ip, mice, in 90% DMSO/H2O, read-out: Volume of Distribution.
Where [13] appears, read: mouse, ip, mice, in 90% DMSO/H2O.
Setting [14] is: stressed (43° C. water 10 min), sacrificed 24 hours later.
Setting [15] is: mouse, ip, pH 11.3, mice, in saline, pH 11.3.

HSV2 TK, sequence (P04407 whole entry): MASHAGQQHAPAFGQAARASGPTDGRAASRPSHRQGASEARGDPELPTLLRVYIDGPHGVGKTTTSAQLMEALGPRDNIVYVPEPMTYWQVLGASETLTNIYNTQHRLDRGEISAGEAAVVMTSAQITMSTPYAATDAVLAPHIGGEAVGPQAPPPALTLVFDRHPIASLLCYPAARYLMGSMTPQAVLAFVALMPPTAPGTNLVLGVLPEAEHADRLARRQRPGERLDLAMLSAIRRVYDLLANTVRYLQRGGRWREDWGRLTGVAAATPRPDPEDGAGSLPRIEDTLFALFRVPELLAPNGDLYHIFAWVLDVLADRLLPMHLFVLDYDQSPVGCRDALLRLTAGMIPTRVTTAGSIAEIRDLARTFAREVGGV
Varicella Zoster Virus (VZV) Thymidine Kinase (TK), sequence (P09250 whole entry, looked up): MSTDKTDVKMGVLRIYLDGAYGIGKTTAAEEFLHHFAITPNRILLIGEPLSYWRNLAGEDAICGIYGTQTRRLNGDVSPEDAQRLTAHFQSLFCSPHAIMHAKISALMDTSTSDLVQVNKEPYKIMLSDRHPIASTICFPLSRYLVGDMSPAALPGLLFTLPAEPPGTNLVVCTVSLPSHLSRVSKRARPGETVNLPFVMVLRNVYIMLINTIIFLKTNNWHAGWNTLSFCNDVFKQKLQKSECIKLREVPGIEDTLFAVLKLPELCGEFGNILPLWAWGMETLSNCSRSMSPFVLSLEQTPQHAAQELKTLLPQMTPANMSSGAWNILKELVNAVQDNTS
HSV1 TK, sequence (P0DTH5 whole entry): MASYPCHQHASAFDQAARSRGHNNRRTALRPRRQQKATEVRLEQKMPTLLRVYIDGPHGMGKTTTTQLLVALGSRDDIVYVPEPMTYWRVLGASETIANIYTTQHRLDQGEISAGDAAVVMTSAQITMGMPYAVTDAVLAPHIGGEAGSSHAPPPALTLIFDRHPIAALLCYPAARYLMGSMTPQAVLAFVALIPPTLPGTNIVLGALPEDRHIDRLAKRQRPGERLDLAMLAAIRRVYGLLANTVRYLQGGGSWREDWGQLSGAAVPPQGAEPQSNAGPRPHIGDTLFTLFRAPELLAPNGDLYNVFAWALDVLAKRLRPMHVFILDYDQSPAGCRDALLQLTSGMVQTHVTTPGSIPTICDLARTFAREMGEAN

Usually Ki stands for a dissociation constant, usually derived from enzyme kinetics or from competition with a known ligand. A low value points to a stronger hold on the target. Regarding `CCCCCCCCCCCCNc1nc2nc[nH]c2c(=O)[nH]1` [C12 G, N^2 -(n-Dodecyl)guanine], in [1], the inhibitory constant (Ki) amounted to 3200 nM and the “Mode of inhibition of VZV TK” value is given as “Competitive inhibitor”.
The IC50 is the point on the concentration scale where inhibition reaches its midpoint. Regarding `CCCCCCCCCCCCCCNc1nc2[nH]cnc2c(=O)[nH]1` [C14 G], the IC50 in [1] was 69000 nM.
For orientation: logP means a log measure of how a compound divides between an organic and an aqueous phase. A low value points to lower lipophilicity. With `O=c1[nH]c(Nc2ccccc2)nc2c1ncn2CC(O)CSCCO` (stereo not shown) [CH2 CHCH2SCH2 CH2 OH], the solubility in series [2] turned out to be 29.8 µM (≈ 10.8 µg/mL). Also, in series [3], the logP was 0.826. Further, the half-inhibitory concentration (IC50) in series [4] (read-out: IC50 HSV2 TK) amounted to 1560 nM.
For the compound `C=CCn1cnc2c(=O)[nH]c(Nc3ccccc3)nc21` [CH2 CHCH2], the solubility in series [2] turned out to be 8.1 µM (≈ 2.17 µg/mL). In series [3], this compound gave a log partition coefficient (logP) of 1.75.
For `O=c1[nH]c(Nc2ccccc2)nc2c1ncn2COC(CO)CO` [CH2OCH(CH2 OH)2], in [2], the solubility worked out at 113 µM (≈ 37.4 µg/mL). This compound came in with a logP in series [3] of 0. The compound further gave a concentration for half-maximal inhibition (IC50) in series [5] of 500 nM.
Turning to `O=c1[nH]c(Nc2ccccc2)nc2c1ncn2CC(O)CO` (stereo not shown) [DHP-PG, 9-(2,3-Dihydroxypropyl)-N^2-phenylguanine], in [2], the solubility turned out to be 171 µM (≈ 51.4 µg/mL). In series [3], this compound gave a lipophilicity (logP) of 0.398. Also, the “# ganglia reactivated/# explanted, HSV1 strain McKrae” value in [6] was 4/4. In [7] (in vivo, 100 mg/kg), this compound registered a C0 of 115 µM and a half-life of 17.3 min.
Turning to `O=c1[nH]c(Nc2ccccc2)nc2c1ncn2CCCCO` [HB-PG, 9-(4-Hydroxybutyl)-N^2-phenylguanine], the solubility in series [2] turned out to be 56 µM (≈ 16.8 µg/mL). Moreover, the “Viral DNA” value in series [8] is given as < 1 × 10^2 copies. The compound further gave a logP in series [3] of 1.26. The “# ganglia reactivated/# explanted, HSV1 strain McKrae” value in [6] is recorded as 2/4. Also, the Vd/F in [9] (setting [12]) was 12.7 L/kg. For the same compound, the half-life in series [9] (setting [13]) came out at 85 min; in series [9] (mouse, ip, mice, in corn oil), 55 min. Further, the half-inhibitory concentration (IC50) in series [4] was found to be 2200 nM. Besides, the “Infectious Virus, Ganglion” value is on record as 0/8 in [10] (not stressed) and 7/18 in series [10] (setting [14]). Also, the figures for the “Infectious Virus, Ocular Surface” value in [10] (not stressed) and in series [10] (setting [14]) were 0/9 and 3/20, respectively. In addition, the “P, difference in frequency of virus in samples from HBPG-treated compared to placebo-treated animals” value in [10] (vs placebo) is less than 0.05. This compound also came in with a C0 in series [7] (in vivo, 100 mg/kg) of 30.5 µM.
In the case of `O=c1[nH]c(Nc2ccccc2)nc2c1ncn2CCO` [HE-PG, 9-(2-Hydroxyethyl)-N^2-phenylguanine], the solubility in [2] was determined as 156 µM (≈ 42.4 µg/mL). In series [3], the log partition coefficient (logP) was 0.833. Further, the “# ganglia reactivated/# explanted, HSV1 strain McKrae” value in series [6] is 4/4. In addition, in series [9] (mice, i.v., in 90% DMSO/H2O), the Plasma half-life was 15 min and the “Volume of Distribution” value was 3.3 L/kg. In addition, the Vd/F in [9] (setting [12]) stood at 4.3 L/kg. In addition, in series [9] (setting [13]), the half-life is 19 min. Moreover, in series [7] (in vivo, 100 mg/kg), the C0 came to 100 µM. For the same compound, in [7] (plasma, mice, i.p. 100 mg/Kg, 90% DMSO, read-out: Plasma t1/2), the half-life was found to be 21 min.
For `Oc1[nH]c(Nc2ccccc2)nc2ncnc1-2` [H], inhibition in series [4] was half-maximal at 1600 nM (IC50).
On to `O=C(O)Cn1cnc2c(=O)[nH]c(Nc3ccccc3)nc21` [PG-AA, (N^2 -Phenylguan-9-yl)acetic acid], for which the “# ganglia reactivated/# explanted, HSV1 strain McKrae” value in series [6] is on record as 4/4. The Vd/F in [9] (setting [12]) stood at 1.7 L/kg. Besides, the half-life in series [9] (setting [13]) came to 33 min. In series [7] (in vivo, 100 mg/kg), this compound came in with a C0 of 246 µM and a half-life of 26.6 min.
`O=c1[nH]c(Nc2ccccc2)nc2c1ncn2[C@H]1C[C@H](O)[C@@H](CO)O1` [PhdG, 9-(2-Deoxyribofuranosyl)-N^2-phenylguanine]: in series [6], the “# ganglia reactivated/# explanted, HSV1 strain McKrae” value was 1/4. The Vd in series [9] (mouse, in vivo, iv, mice, i.v., in saline, pH 11.3, read-out: Volume of Distribution) was found to be 0.4 L/kg. In addition, the half-life in series [9] (setting [15]) was determined as 60 min; in series [9] (mouse, iv, pH 11.3, mice, in saline, pH 11.3), 7.5 min; in [7] (in vivo, 100 mg/kg, pH 11.4), 60 min. Further, in series [11], the “# ganglia reactivated/# explanted, HSV1 strain KOS” value is given as 3/20. For the same compound, the C0 in series [7] (in vivo, 100 mg/kg, pH 11.4) was determined as 11.7 µM.
Turning to `CCCNc1nc2c(ncn2[C@H]2C[C@H](O)[C@@H](CO)O2)c(=O)[nH]1` [PrdG, 9-(2-deoxyribofuranosyl)-N^2-n-propylguanine], in [1], the IC50 came to 20000 nM, affinity was put at a Ki of 13600 nM and the “Mode of inhibition of VZV TK” value is “Competitive inhibitor”.
With `O=c1[nH]c(Nc2ccccc2)nc2c1ncn2[C@H]1C[C@H](O)[C@@H](CO)O1` [drawing 15], in series [2], the solubility is 81 µM (≈ 27.8 µg/mL). This compound also had a logP in series [3] of 0.398. Also, in series [4], 700 nM corresponded to half-maximal inhibition (IC50).
Take `O=c1[nH]c(Nc2cccc(C(F)(F)F)c2)nc2nc[nH]c12` [m-CF3 PG, N^2-(m-[trifluoromethyl]phenyl)guanine, reference compound]: in [6], the “# ganglia reactivated/# explanted, HSV1 strain McKrae” value is recorded as 0/4. For the same compound, in [9] (mice, i.v., in saline, pH 11.3), the Plasma half-life is 25 min and the “Volume of Distribution” value came out at 3.0 L/kg. Moreover, the half-life in series [9] (setting [15]) was 140 min. Also, the “# ganglia reactivated/# explanted, HSV1 strain KOS” value in series [11] is 1/20. Further, the C0 in [7] (in vivo, 100 mg/kg, pH 11.4) was 10.2 µM.
